# Measured values: patent US10302644B2, “Compositions and methods for treating multiple myeloma” (Dana-Farber Cancer Institute, Inc., priority 2014, dated 2019)
# How the values were obtained:
# MM cells = test: Growth inhibition assay (MTT) / viable cell count (Trypan-blue); type: cell-based
# Protocol: Cell growth was assessed by measuring 3-(4,5-dimethylthiazol-2-yl)-2,5-diphenyl […] bromide (MTT, Chemicon International, Temecula, Calif.) dye absorbance. Cells were pulsed with 10 μl of 5 mg/ml MTT to each well for the last 4 h of 48 h and/or 72 h cultures, followed by 100 μl isopropanol containing 0.04N HCl. Absorbance was measured at 570/630 nm using a spectrophotometer (Molecular Devices Corp., Sunnyvale Calif.).
# p53 [1] = test: Immunoblotting of p53 and phosphorylated p53 in MM cells; type: cell-based
# Protocol: (§1) MM cells were harvested and lysed using RIPA-lysis buffer (Boston Bioproducts, Ashland, Mass.) containing 5 mM EDTA, 5 mM NaF, 2 mM Na3VO4, 1 mM PMSF, 5 μg/ml leupeptin, and 5 μg/ml aprotinin. Nuclear proteins were extracted using “Nuclear Extraction Kit” (Affimetrix). After the determination of protein concentration using DC protein assay (Bio-Rad, Hercules, Calif.), β-mercaptoethanol (-ME) was added to the whole-cell lysates to a 2% final concentration. The whole cell lysates or nuclear extracts were subjected to SDS-PAGE, transferred to nitrocellulose membranes (Bio-Rad, Hercules, Calif.) or polyvinylidene fluoride membranes (Millipore, Billerica, Mass.), and immunoblotted with indicated Abs. Silver staining was carried out using “SilverQuest Staining Kit®” (Invitrogen), according to manufacturer's protocol.
# p53 [2] = test: p53 DNA binding activity assay; type: cell-based; conditions: MM.1S and H929 cells, 48 h
# Protocol: E2F1 DNA binding activity was assessed by electrophoretic mobility shift assay (EMSA) using “EMSA Gel Shift Kit®” from Affimetrix (Santa Clara, Calif.), and p53 DNA binding activity was performed using “p53 Transcription Factor Assay Kit®” from Cayman Chemical (Ann Arbor, Mich.). Experiments were carried out according to manufacturer's protocols.
# Chk1, ATM, ATR, Chk2 = test: Immunoblotting of DNA damage kinase phosphorylation; type: cell-based; conditions: MM.1S cells, 48 h
# Protocol: as §1
# [3] = tested on: LC3-II, Bim, PARP, MDM2, XIAP, cIAP, p-p70S6K; test: Immunoblotting/qPCR of autophagy and apoptosis proteins in MM cells; type: cell-based; conditions: MM.1S cells, 2.5 μM, 48 h
# Protocol: as §1
# (§2) RNA was extracted using Trizol (Invitrogen) and quantified by a Nanodrop spectrophotometer (Labtech). Specifically, 5×10^6 cells were pelleted, washed with cold PBS, and resuspended in 1 mL Trizol. They were then incubated with 1-Bromo-3-chloropropane (Sigma), washed first with Isopropyl alcohol and then with 75% Ethanol, and resuspended in Nuclease Free-water (Invitrogen). After quantification, 2000 ng of RNA was used to synthesize cDNA via the Superscript II First strand synthesis Kit (Invitrogen), according to the manufacturer's instructions. To evaluate the expression levels of TP53RK, BCL2L11, MYC, Bim, E2F1, TP53, IKZF1, IKZF3, RRM1, p18CDKN2C, PSMB5, PSMB7, PSMA3 and GAPDH, quantitative real time PCR (QRT-PCR) was performed using SYBR GREEN PCR Master Mix (Applied Biosystem), after optimization of the primer conditions. cDNAs were diluted 1:100 or 1:1000 and amplified in a 20 μL reaction. Primers were used at 200 nM or 400 nM concentration. Thermal cycling conditions were: 10 minutes at 95° C., 40 cycles at 95° C. for 15 seconds, followed by 1 minute at 60° C. Real-time quantitative PCR was performed on ABI Prism 7300 Sequence Detection System (Applied Biosystems). Data were analyzed using the delta delta Ct method. GAPDH was used as an invariant control.
# E2F1 = E2F1 DNA binding activity (EMSA), protein and mRNA; type: cell-based; conditions: MM cells
# Protocol: MM cells were harvested and lysed using RIPA-lysis buffer (Boston Bioproducts, Ashland, Mass.) containing 5 mM EDTA, 5 mM NaF, 2 mM Na3VO4, 1 mM PMSF, 5 μg/ml leupeptin, and 5 μg/ml aprotinin. Nuclear proteins were extracted using “Nuclear Extraction Kit” (Affimetrix). After the determination of protein concentration using DC protein assay (Bio-Rad, Hercules, Calif.), β-mercaptoethanol (-ME) was added to the whole-cell lysates to a 2% final concentration. […]
# RNA was extracted using Trizol (Invitrogen) and quantified by a Nanodrop spectrophotometer (Labtech). […] After quantification, 2000 ng of RNA was used to synthesize cDNA via the Superscript II First strand synthesis Kit (Invitrogen), according to the manufacturer's instructions. To evaluate the expression levels of TP53RK, BCL2L11, MYC, Bim, E2F1, TP53, IKZF1, IKZF3, RRM1, p18CDKN2C, PSMB5, PSMB7, PSMA3 and GAPDH, quantitative real time PCR (QRT-PCR) was performed using SYBR GREEN PCR Master Mix (Applied Biosystem), after optimization of the primer conditions. cDNAs were diluted 1:100 or 1:1000 and amplified in a 20 μL reaction. […] Real-time quantitative PCR was performed on ABI Prism 7300 Sequence Detection System (Applied Biosystems). Data were analyzed using the delta delta Ct method. […]
# RRM1, p18CDKN2C = test: RRM1 and p18CDKN2C expression (RT-qPCR, Western blot); type: cell-based; conditions: H929 cells
# Protocol: as §1, §2
# hTERT [4] = test: hTERT expression and telomerase activity (TeloTAGGG Telomerase PCR ELISA); type: cell-based; conditions: MM.1S cells and H929 cells
# Protocol: as §1
# Telomerase activity in MM.1S and H929 cells was assessed by “TeloTAGGG Telomerase PCR ELISA®” from Roche Applied Science (Mannheim, Germany).
# p53 target genes = test: GEP analysis of patient MM cells before and after lenalidomide treatment; type: in vivo, human; conditions: patient MM cells treated with Len; *p < 0.05
# Text: Expression data for plasma cells from healthy donors, monoclonal gammopathy of undetermined significance (MGUS), and smoldering myeloma (SMM) were derived from GSE5900 dataset, while expression data from normal plasma cells and 65 MM patients were obtained from GSE4452 dataset, using expression profiling on Affymetrix GeneChip (t test, unpaired, equal variance). […] Data were then normalized and analyzed using D-chip software, seeking statistically significant differences among groups or in p53-target gene expression. Statistical significance was determined by Student t test. The minimal level of significance was P<0.05. […] Gene set enrichment analysis (GSEA) was performed as previously described (2) (GSEA v2.0 at http://www.broad.mit.edu/gsea) using gene set as permutation type, as well as 1,000 permutations and signal to noise as metrics for ranking genes.
# hTERT [5] = test: Comparative hTERT expression analysis in matched MM patient samples (GSE8546); type: in vivo, human; conditions: matched samples before and after Len, GSE8546 dataset
structure (smiles),measurement,setting,value
"Nc1cccc2c1CN(C1CCC(=O)NC1=O)C2=O (stereo not drawn) [Len, lenalidomide]",drug-triggered growth inhibition in kinase-dead D163A TP53RK transfectants,"MM cells; H929 cells, 48 h",abrogated
same,sensitivity of MM cell lines to drug,MM cells; MM.1S and H929 cells with wt-p53 versus cell lines with mutant p53,more sensitive
same,drug-triggered cell death after CRBN knock-down,MM cells; OPM2 cells (mutant p53) and H929 cells (wt-p53),only partially abrogates
same,p53 phosphorylation at Ser20 and Ser37,"p53 [1]; MM.1S cells, 2.5 μM, 48 h",no change
same,phosphorylated (p-Ser15)-p53 and p53 levels,"p53 [1]; MM.1S cells, 2.5 μM, 48 h",downregulated
same,Nut3-induced upregulation of p-p53 and p53,"p53 [1]; MM.1S cells, Len or Pom 2.5 μM with Nutlin-3a 0.5 μM, 48 h",inhibited
same,p-p53/p53 downregulation,"p53 [1]; nuclear extracts from MM.1S and H929 cell lines, patient MM cells",further confirmed
same,p53 activity (p53 DNA binding),p53 [2],block
same,"phosphorylation of ATM, ATR or Chk2","Chk1, ATM, ATR, Chk2",not
same,phosphorylation of Chk1,"Chk1, ATM, ATR, Chk2",inhibited
same,LC3-II level,[3],upregulation
same,E2F1,E2F1,increases
same,RRM1 expression,"RRM1, p18CDKN2C",downregulate
same,p18CDKN2C expression,"RRM1, p18CDKN2C",upregulate
same,hTERT expression,hTERT [4],significantly inhibited
same,telomerase (hTERT) activity,hTERT [4],significantly inhibited
same,BID expression change,p53 target genes,↓
same,CCNA1 expression change,p53 target genes,↓
same,CCNA2 expression change,p53 target genes,↓
same,CCNE2 expression change,p53 target genes,↓
same,CCNG1 expression change,p53 target genes,↓
same,CCR5 expression change,p53 target genes,↓
same,CDC25B expression change,p53 target genes,↑
same,CDKN3 expression change,p53 target genes,↓
same,CTSL2 expression change,p53 target genes,↑
same,CUL1 expression change,p53 target genes,↓
same,DDX3X expression change,p53 target genes,↑*
same,DDX11 expression change,p53 target genes,↓
same,DLEC1 expression change,p53 target genes,↓
same,FGFR3 expression change,p53 target genes,↓
same,HLA-C expression change,p53 target genes,↑
same,ILR6 expression change,p53 target genes,↓
same,ITM2B expression change,p53 target genes,↑*
same,JUND expression change,p53 target genes,↓
same,KRAS expression change,p53 target genes,↑*
same,LAPTM5 expression change,p53 target genes,↑
same,MAP2K6 expression change,p53 target genes,↓*
same,MKI67 expression change,p53 target genes,↓
same,MSX1 expression change,p53 target genes,↓
same,MYBL2 expression change,p53 target genes,↓*
same,MYC expression change,p53 target genes,↓
same,RAD21 expression change,p53 target genes,↑
same,RAD51C expression change,p53 target genes,↓
same,RHOH expression change,p53 target genes,↑*
same,RRM1 expression change,p53 target genes,↓*
same,RRM2 expression change,p53 target genes,↓*
same,SEC61A1 expression change,p53 target genes,↑*
same,SMC4 expression change,p53 target genes,↑
same,STAT3 expression change,p53 target genes,↑
same,TEAD3 expression change,p53 target genes,↓
same,UBC expression change,p53 target genes,↑*
same,XPC expression change,p53 target genes,↑
same,ZNF330 expression change,p53 target genes,↓
same,hTERT levels in MM patient samples after treatment,hTERT [5],lower
